Reference: ChEMBL document CHEMBL1949655, “Neomycin-phenolic conjugates: polycationic amphiphiles with broad-spectrum antibacterial activity, low hemolytic activity and weak serum protein binding” (Bioorg Med Chem Lett, 2012)
Converted amounts (≈) assume the structure as drawn.

Key:
[1] = tested on: Staphylococcus aureus; assay: microbe, parasite or virus in culture; type: functional; conditions: ATCC 29213, 24 h
Description: Antibacterial activity against Staphylococcus aureus ATCC 29213 after 24 hrs by macrobroth dilution method

[2] = tested on: Staphylococcus aureus; assay: microbe, parasite or virus in culture; type: functional; conditions: ATCC 33592, 24 h
Description: Antibacterial activity against methicillin-resistant Staphylococcus aureus ATCC 33592 after 24 hrs by macrobroth dilution method

[3] = tested on: Staphylococcus epidermidis; assay: microbe, parasite or virus in culture; type: functional; conditions: Staphylococcus epidermidis, 81388, 24 h
Description: Antibacterial activity against methicillin-susceptible Staphylococcus epidermidis 81388 after 24 hrs by macrobroth dilution method

[4] = tested on: Staphylococcus epidermidis; assay: microbe, parasite or virus in culture; type: functional; conditions: isolate CAN-ICU61589, 24 h
Description: Antibacterial activity against methicillin-resistant Staphylococcus epidermidis isolate CAN-ICU 61589 after 24 hrs by macrobroth dilution method

[5] = tested on: Enterococcus faecalis; assay: microbe, parasite or virus in culture; type: functional; conditions: ATCC 29212, 24 h
Description: Antibacterial activity against Enterococcus faecalis ATCC 29212 after 24 hrs by macrobroth dilution method

[6] = tested on: Enterococcus faecium; assay: microbe, parasite or virus in culture; type: functional; conditions: ATCC 27270, 24 h
Description: Antibacterial activity against Enterococcus faecium ATCC 27270 after 24 hrs by macrobroth dilution method

[7] = tested on: Streptococcus pneumoniae; assay: microbe, parasite or virus in culture; type: functional; conditions: ATCC 49619, 24 h
Description: Antibacterial activity against Streptococcus pneumoniae ATCC 49619 after 24 hrs by macrobroth dilution method

[8] = tested on: Escherichia coli; assay: microbe, parasite or virus in culture; type: functional; conditions: ATCC 25922, 24 h
Description: Antibacterial activity against Escherichia coli ATCC 25922 after 24 hrs by macrobroth dilution method

[9] = tested on: Escherichia coli; assay: microbe, parasite or virus in culture; type: functional; conditions: isolate CAN-ICU 61714, 24 h
Description: Antibacterial activity against Escherichia coli isolate CAN-ICU 61714 after 24 hrs by macrobroth dilution method

[10] = tested on: Escherichia coli; assay: microbe, parasite or virus in culture; type: functional; conditions: isolate CAN-ICU 63074, 24 h
Description: Antibacterial activity against Escherichia coli isolate CAN-ICU 63074 after 24 hrs by macrobroth dilution method

[11] = tested on: Pseudomonas aeruginosa; assay: microbe, parasite or virus in culture; type: functional; conditions: ATCC 27853, 24 h
Description: Antibacterial activity against Pseudomonas aeruginosa ATCC 27853 after 24 hrs by macrobroth dilution method

[12] = tested on: Pseudomonas aeruginosa; assay: microbe, parasite or virus in culture; type: functional; conditions: isolate CAN-ICU 62308, 24 h
Description: Antibacterial activity against Pseudomonas aeruginosa isolate CAN-ICU 62308 after 24 hrs by macrobroth dilution method

[13] = tested on: Stenotrophomonas maltophilia; assay: microbe, parasite or virus in culture; type: functional; conditions: isolate CAN-ICU 62584, 24 h
Description: Antibacterial activity against Stenotrophomonas maltophilia isolate CAN-ICU 62584 after 24 hrs by macrobroth dilution method

[14] = tested on: Acinetobacter baumannii; assay: microbe, parasite or virus in culture; type: functional; conditions: isolate CAN-ICU 63169, 24 h
Description: Antibacterial activity against Acinetobacter baumannii 63169 isolate CAN-ICU after 24 hrs by macrobroth dilution method

[15] = tested on: Klebsiella pneumoniae; assay: microbe, parasite or virus in culture; type: functional; conditions: ATCC 13883, 24 h
Description: Antibacterial activity against Klebsiella pneumoniae ATCC 13883 after 24 hrs by macrobroth dilution method

[16] = tested on: Staphylococcus aureus; assay: microbe, parasite or virus in culture; type: functional; conditions: ATCC 29213, 24 h; remark: listed apart in the source
Description: Antibacterial activity against Staphylococcus aureus ATCC 29213 after 24 hrs by macrobroth dilution method in the presence of bovine serum albumin

[17] = tested on: Staphylococcus aureus; assay: microbe, parasite or virus in culture; type: functional; conditions: ATCC 33592, 24 h; remark: listed apart in the source
Description: Antibacterial activity against methicillin-resistant Staphylococcus aureus ATCC 33592 after 24 hrs by macrobroth dilution method in the presence of bovine serum albumin

[18] = tested on: Staphylococcus epidermidis; assay: microbe, parasite or virus in culture; type: functional; conditions: Staphylococcus epidermidis, 81388, 24 h; remark: listed apart in the source
Description: Antibacterial activity against methicillin-susceptible Staphylococcus epidermidis 81388 after 24 hrs by macrobroth dilution method in the presence of bovine serum albumin

[19] = tested on: Staphylococcus epidermidis; assay: microbe, parasite or virus in culture; type: functional, isolate CAN-ICU 61589; conditions: isolate CAN-ICU61589, 24 h
Description: Antibacterial activity against methicillin-resistant Staphylococcus epidermidis isolate CAN-ICU 61589 after 24 hrs by macrobroth dilution method in the presence of bovine serum albumin

[20] = tested on: Enterococcus faecalis; assay: microbe, parasite or virus in culture; type: functional; conditions: ATCC 29212, 24 h; remark: listed apart in the source
Description: Antibacterial activity against Enterococcus faecalis ATCC 29212 after 24 hrs by macrobroth dilution method in the presence of bovine serum albumin

[21] = tested on: Enterococcus faecium; assay: microbe, parasite or virus in culture; type: functional; conditions: ATCC 27270, 24 h; remark: listed apart in the source
Description: Antibacterial activity against Enterococcus faecium ATCC 27270 after 24 hrs by macrobroth dilution method in the presence of bovine serum albumin

[22] = tested on: Streptococcus pneumoniae; assay: microbe, parasite or virus in culture; type: functional; conditions: ATCC 49619, 24 h; remark: listed apart in the source
Description: Antibacterial activity against Streptococcus pneumoniae ATCC 49619 after 24 hrs by macrobroth dilution method in the presence of bovine serum albumin

[23] = tested on: Escherichia coli; assay: microbe, parasite or virus in culture; type: functional; conditions: ATCC 25922, 24 h; remark: listed apart in the source
Description: Antibacterial activity against Escherichia coli ATCC 25922 after 24 hrs by macrobroth dilution method in the presence of bovine serum albumin

[24] = tested on: Escherichia coli; assay: microbe, parasite or virus in culture; type: functional; conditions: isolate CAN-ICU 61714, 24 h; remark: listed apart in the source
Description: Antibacterial activity against Escherichia coli isolate CAN-ICU 61714 after 24 hrs by macrobroth dilution method in the presence of bovine serum albumin

[25] = tested on: Escherichia coli; assay: microbe, parasite or virus in culture; type: functional; conditions: isolate CAN-ICU 63074, 24 h; remark: listed apart in the source
Description: Antibacterial activity against Escherichia coli isolate CAN-ICU 63074 after 24 hrs by macrobroth dilution method in the presence of bovine serum albumin

[26] = tested on: Pseudomonas aeruginosa; assay: microbe, parasite or virus in culture; type: functional; conditions: ATCC 27853, 24 h; remark: listed apart in the source
Description: Antibacterial activity against Pseudomonas aeruginosa ATCC 27853 after 24 hrs by macrobroth dilution method in the presence of bovine serum albumin

[27] = tested on: Pseudomonas aeruginosa; assay: microbe, parasite or virus in culture; type: functional; conditions: isolate CAN-ICU 62308, 24 h; remark: listed apart in the source
Description: Antibacterial activity against Pseudomonas aeruginosa isolate CAN-ICU 62308 after 24 hrs by macrobroth dilution method in the presence of bovine serum albumin

[28] = tested on: Stenotrophomonas maltophilia; assay: microbe, parasite or virus in culture; type: functional; conditions: isolate CAN-ICU 62584, 24 h; remark: listed apart in the source
Description: Antibacterial activity against Stenotrophomonas maltophilia isolate CAN-ICU 62584 after 24 hrs by macrobroth dilution method in the presence of bovine serum albumin

[29] = tested on: Acinetobacter baumannii; assay: microbe, parasite or virus in culture; type: functional; conditions: isolate CAN-ICU 63169, 24 h; remark: listed apart in the source
Description: Antibacterial activity against Acinetobacter baumannii isolate CAN-ICU 63169 after 24 hrs by macrobroth dilution method in the presence of bovine serum albumin

[30] = tested on: Klebsiella pneumoniae; assay: microbe, parasite or virus in culture; type: functional; conditions: ATCC 13883, 24 h; remark: listed apart in the source
Description: Antibacterial activity against Klebsiella pneumoniae ATCC 13883 after 24 hrs by macrobroth dilution method in the presence of bovine serum albumin

[31] = Toxicity in human erythrocytes assessed as hemolysis at 100 ug/ml by spectrophotometry; conditions: at 100 µg/mL
[32] = tested on: Pseudomonas aeruginosa; assay: Ratio of MIC90 of neomycin sulfate to MIC90 of compound against Pseudomonas aeruginosa ATCC 27853; type: functional
[33] = tested on: Pseudomonas aeruginosa; assay: Ratio of MIC90 of neomycin sulfate to MIC90 of compound against Pseudomonas aeruginosa 62308; type: functional

Compound | MIC90 [1] | MIC90 [2] | MIC90 [3] | MIC90 [4] | MIC90 [5] | MIC90 [6] | MIC90 [7] | MIC90 [8] | MIC90 [9] | MIC90 [10] | MIC90 [11] | MIC90 [12] | MIC90 [13] | MIC90 [14] | MIC90 [15] | MIC90 [16] | MIC90 [17] | MIC90 [18] | MIC90 [19] | MIC90 [20] | other results
Oc1cc(Cl)ccc1Oc1ccc(Cl)cc1Cl [TRICLOSAN] | 0.5 µg/mL (≈ 1.73 µM) | ≤ 0.25 µg/mL | 1 µg/mL (≈ 3.45 µM) | ≤ 0.25 µg/mL | 8 µg/mL (≈ 27.6 µM) | 16 µg/mL (≈ 55.3 µM) | 128 µg/mL (≈ 442 µM) | ≤ 0.25 µg/mL | 1 µg/mL (≈ 3.45 µM) | 1 µg/mL (≈ 3.45 µM) | > 512 µg/mL | 64 µg/mL (≈ 221 µM) | 512 µg/mL (≈ 1770 µM) | 8 µg/mL (≈ 27.6 µM) | 1 µg/mL (≈ 3.45 µM) | 0.5 µg/mL (≈ 1.73 µM) | 1 µg/mL (≈ 3.45 µM) | 1 µg/mL (≈ 3.45 µM) | 1 µg/mL (≈ 3.45 µM) | 512 µg/mL (≈ 1770 µM) | MIC90 [21]: 512 µg/mL (≈ 1770 µM); MIC90 [22]: 256 µg/mL (≈ 884 µM); MIC90 [23]: 16 µg/mL (≈ 55.3 µM); MIC90 [24]: 16 µg/mL (≈ 55.3 µM); MIC90 [25]: 64 µg/mL (≈ 221 µM); MIC90 [26]: > 512 µg/mL; MIC90 [27]: > 512 µg/mL; MIC90 [28]: > 512 µg/mL; MIC90 [29]: 128 µg/mL (≈ 442 µM); MIC90 [30]: 32 µg/mL (≈ 111 µM)
CC(C)(C)CC(C)(C)c1ccc(OCc2cn(C[C@H]3O[C@@H](O[C@@H]4[C@@H](O)[C@H](N)C[C@H](N)[C@H]4O[C@H]4O[C@H](CN)[C@@H](O)[C@H](O)[C@H]4N)[C@H](O)[C@@H]3O[C@H]3O[C@@H](CN)[C@@H](O)[C@H](O)[C@H]3N)nn2)c(Cc2ccc(Cl)cc2Cl)c1 | 8 µg/mL (≈ 7.67 µM) | 8 µg/mL (≈ 7.67 µM) | 4 µg/mL (≈ 3.83 µM) | 1 µg/mL (≈ 0.959 µM) | 8 µg/mL (≈ 7.67 µM) | 8 µg/mL (≈ 7.67 µM) | 64 µg/mL (≈ 61.4 µM) | 16 µg/mL (≈ 15.3 µM) | 64 µg/mL (≈ 61.4 µM) | 64 µg/mL (≈ 61.4 µM) | 128 µg/mL (≈ 123 µM) | 64 µg/mL (≈ 61.4 µM) | 512 µg/mL (≈ 491 µM) | 64 µg/mL (≈ 61.4 µM) | 64 µg/mL (≈ 61.4 µM) | 8 µg/mL (≈ 7.67 µM) | 16 µg/mL (≈ 15.3 µM) | 2 µg/mL (≈ 1.92 µM) | 4 µg/mL (≈ 3.83 µM) | 16 µg/mL (≈ 15.3 µM) | MIC90 [21]: 8 µg/mL (≈ 7.67 µM); MIC90 [22]: 128 µg/mL (≈ 123 µM); MIC90 [23]: 64 µg/mL (≈ 61.4 µM); MIC90 [24]: 128 µg/mL (≈ 123 µM); MIC90 [25]: 256 µg/mL (≈ 245 µM); MIC90 [26]: 512 µg/mL (≈ 491 µM); MIC90 [27]: 128 µg/mL (≈ 123 µM); MIC90 [28]: > 512 µg/mL; MIC90 [29]: 256 µg/mL (≈ 245 µM); MIC90 [30]: 64 µg/mL (≈ 61.4 µM); hemolysis at 100 ug/ml [31]: 27.5%; Ratio [32]: 4; Ratio [33]: 4
NC[C@@H]1O[C@H](O[C@H]2[C@@H](O)[C@H](O[C@@H]3[C@@H](O)[C@H](N)C[C@H](N)[C@H]3O[C@H]3O[C@H](CN)[C@@H](O)[C@H](O)[C@H]3N)O[C@@H]2CO)[C@H](N)[C@@H](O)[C@@H]1O.O.O=S(=O)(O)O [NEOMYCIN TRISULFATE HYDRATE] | 1 µg/mL | 256 µg/mL | 0.5 µg/mL | ≤ 0.25 µg/mL | 16 µg/mL | 4 µg/mL | 32 µg/mL | 4 µg/mL | 1 µg/mL | 8 µg/mL | 512 µg/mL | 256 µg/mL | > 512 µg/mL | 64 µg/mL | 0.25 µg/mL | 0.5 µg/mL | 128 µg/mL | 0.5 µg/mL | ≤ 0.25 µg/mL | 16 µg/mL | MIC90 [21]: 4 µg/mL; MIC90 [22]: 8 µg/mL; MIC90 [23]: 0.25 µg/mL; MIC90 [24]: 1 µg/mL; MIC90 [25]: 16 µg/mL; MIC90 [26]: 256 µg/mL; MIC90 [27]: 256 µg/mL; MIC90 [28]: > 512 µg/mL; MIC90 [29]: 32 µg/mL; MIC90 [30]: ≤ 0.25 µg/mL; hemolysis at 100 ug/ml [31]: 0.69%
Cc1cc(OCCCCc2cn(C[C@H]3O[C@@H](O[C@@H]4[C@@H](O)[C@H](N)C[C@H](N)[C@H]4O[C@H]4O[C@H](CN)[C@@H](O)[C@H](O)[C@H]4N)[C@H](O)[C@@H]3O[C@H]3O[C@@H](CN)[C@@H](O)[C@H](O)[C@H]3N)nn2)cc(C)c1Cl | 16 µg/mL (≈ 18.3 µM) | 128 µg/mL (≈ 146 µM) | 8 µg/mL (≈ 9.13 µM) | 8 µg/mL (≈ 9.13 µM) | 128 µg/mL (≈ 146 µM) | 16 µg/mL (≈ 18.3 µM) | 64 µg/mL (≈ 73 µM) | 32 µg/mL (≈ 36.5 µM) | 16 µg/mL (≈ 18.3 µM) | 128 µg/mL (≈ 146 µM) | 512 µg/mL (≈ 584 µM) | 256 µg/mL (≈ 292 µM) | > 512 µg/mL | 512 µg/mL (≈ 584 µM) | 4 µg/mL (≈ 4.56 µM) | 32 µg/mL (≈ 36.5 µM) | 256 µg/mL (≈ 292 µM) | 8 µg/mL (≈ 9.13 µM) | 8 µg/mL (≈ 9.13 µM) | 128 µg/mL (≈ 146 µM) | MIC90 [21]: 32 µg/mL (≈ 36.5 µM); MIC90 [22]: 256 µg/mL (≈ 292 µM); MIC90 [23]: 32 µg/mL (≈ 36.5 µM); MIC90 [24]: 16 µg/mL (≈ 18.3 µM); MIC90 [25]: 128 µg/mL (≈ 146 µM); MIC90 [26]: > 512 µg/mL; MIC90 [27]: 256 µg/mL (≈ 292 µM); MIC90 [28]: > 512 µg/mL; MIC90 [29]: 512 µg/mL (≈ 584 µM); MIC90 [30]: 4 µg/mL (≈ 4.56 µM); hemolysis at 100 ug/ml [31]: 0.75%
